Literature values in patent US20110282046A1, “PROCESS FOR PREPARATION OF CIS-NUCLEOSIDE DERIVATIVE” (priority 2009, published 2011).
Where two headings read alike, the source gives them in different places.

Conditions: for volume of water in which 1 g dissolves: Merck Index Entry no. 8869

Row | SMILES | volume of water in which 1 g dissolves (boiling water) [mL] | volume of water in which 1 g dissolves (cold water) [mL] | solubility in water (water, Merck Index Entry no. 8332) [g in 100 ml water]
1 | O=C(O)CCC(=O)O [Succinic acid] | 1 | 13 | –
2 | O=C(O)c1ccccc1O [salicylic acid] | – | – | 0.20
